In ChEMBL document CHEMBL1127015, “Centrally acting serotonergic and dopaminergic agents. 1. Synthesis and structure-activity relationships of 2,3,3a,4,5,9b-hexahydro-1H-benz[e]indole derivatives” (J Med Chem, 1993):

Legend:
D(2) dopamine receptor [1] = target: T1, D(2) dopamine receptor (Homo sapiens, UniProt P14416); experiment: Intrinsic activity from GTP shift using membranes from CHO cells transfected with mammalian dopamine receptor D2.; type: cell membranes
D(2) dopamine receptor [2] = target: T2, D(2) dopamine receptor (Rattus norvegicus, UniProt P61169); experiment: Binding affinity against [3H]raclopride-labeled dopamine receptor D2 in rat striatum.; type: tissue-based
T2 sequence (P61169 whole entry): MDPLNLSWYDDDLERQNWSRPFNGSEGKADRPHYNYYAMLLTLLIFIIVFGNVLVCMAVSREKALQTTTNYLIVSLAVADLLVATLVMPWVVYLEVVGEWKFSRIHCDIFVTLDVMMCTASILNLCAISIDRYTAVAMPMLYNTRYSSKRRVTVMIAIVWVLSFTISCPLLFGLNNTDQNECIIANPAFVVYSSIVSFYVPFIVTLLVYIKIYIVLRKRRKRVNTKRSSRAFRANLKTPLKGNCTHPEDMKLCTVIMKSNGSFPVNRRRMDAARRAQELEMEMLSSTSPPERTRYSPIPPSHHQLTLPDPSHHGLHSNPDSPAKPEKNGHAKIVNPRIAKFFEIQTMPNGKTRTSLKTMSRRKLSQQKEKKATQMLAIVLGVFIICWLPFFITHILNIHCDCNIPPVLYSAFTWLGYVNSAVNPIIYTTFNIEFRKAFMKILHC

Mus musculus [3] = experiment: Antagonism of apomorphine in reserpinized mice when a dose of 3.6 micro mol/kg is administered intraperitoneally; type: functional
Mus musculus [4] = experiment: Antagonism of apomorphine in reserpinized mice when a dose of 36 micro mol/kg is administered intraperitoneally; type: functional
Mus musculus [5] = experiment: Antagonism of apomorphine effects for 10-20 minutes in reserpinized mice following 0.4 umol/kg i.p.; type: functional
Mus musculus [6] = experiment: Antagonism of apomorphine for 10-20 minutes in reserpinized mice when a dose of 3.6 micro mol/kg is administered intraperitoneally; type: functional
Mus musculus [7] = experiment: Antagonism of apomorphine effects for 0-10 minutes in reserpinized mice following 0.4 umol/kg i.p.; type: functional; parameters: unit not given beside the values
Mus musculus [8] = experiment: Antagonism of apomorphine for 0-10 minutes in reserpinized mice when a dose of 3.6 micro mol/kg is administered intraperitoneally; type: functional
Mus musculus [9] = experiment: Antagonism of apomorphine for 0-10 minutes in reserpinized mice when a dose of 36 micro mol/kg is administered intraperitoneally; type: functional
Mus musculus [10] = experiment: Ability to stimulate dopaminergic systems by effect on locomotor activity in reserpinized mice when a dose of 3.6 micro mol/kg is administered intraperitoneally; type: functional
Mus musculus [11] = experiment: Ability to stimulate dopaminergic systems by effect on locomotor activity in reserpinized mice when a dose of 36 micro mol/kg is administered intraperitoneally; type: functional
Mus musculus [12] = experiment: Increase in locomotor activity in reserpinized mice following 0.4 umol/kg i.p.; type: functional
Mus musculus [13] = experiment: Antagonism of apomorphine for 10-20 minutes in reserpinized mice when a dose of 36 micro mol/kg is administered intraperitoneally; type: functional
Rattus norvegicus [14] = experiment: Inhibition of firing rates of dopaminergic neurons in the substantia nigra pars compacta by intravenous injection in rats; type: functional
Rattus norvegicus [15] = experiment: Inhibition of firing rates of serotonergic neurons in the substantia nigra pars compacta by intravenous injection in rats.; type: functional
Mus musculus [16] = experiment: Antagonism of apomorphine effects in reserpinized mice following 0.4 umol/kg i.p.; type: functional
D(2) dopamine receptor [17] = target: T1, D(2) dopamine receptor; experiment: Compound was evaluated for the intrinsic activity from GTP shift against dopamine receptor D2; type: functional
Mus musculus [18] = experiment: Antagonism of apomorphine in reserpinized mice when a dose of 3.5 micro mol/kg is administered intraperitoneally; type: functional
Mus musculus [19] = experiment: Antagonism of apomorphine in reserpinized mice when a dose of 35 micro mol/kg is administered intraperitoneally; type: functional
Mus musculus [20] = experiment: Antagonism of apomorphine for 10-20 minutes in reserpinized mice when a dose of 3.5 micro mol/kg is administered intraperitoneally; type: functional
Mus musculus [21] = experiment: Antagonism of apomorphine for 0-10 minutes in reserpinized mice when a dose of 3.5 micro mol/kg is administered intraperitoneally; type: functional
Mus musculus [22] = experiment: Antagonism of apomorphine for 0-10 minutes in reserpinized mice when a dose of 35 micro mol/kg is administered intraperitoneally; type: functional
Mus musculus [23] = experiment: Ability to stimulate dopaminergic systems by effect on locomotor activity in reserpinized mice when a dose of 3.5 micro mol/kg is administered intraperitoneally; type: functional
Mus musculus [24] = experiment: Ability to stimulate dopaminergic systems by effect on locomotor activity in reserpinized mice when a dose of 35 micro mol/kg is administered intraperitoneally; type: functional
Mus musculus [25] = experiment: Antagonism of apomorphine for 10-20 minutes in reserpinized mice when a dose of 35 micro mol/kg is administered intraperitoneally; type: functional
D(2) dopamine receptor [26] = target: T1, D(2) dopamine receptor; experiment: Compound was evaluated for the binding affinity against [3H]U-86,170-labeled dopamine receptor D2 in cloned CHO cells; type: cell-based
Felis catus [27] = experiment: Maximum decrease of arterial blood pressure at sympathetic nerve activity (SND) in anesthetized cat has been observed following 1 mg/kg dose; type: functional; parameters: scale not given: the % may be the effect or the level left
Felis catus [28] = experiment: Maximum decrease of sympathetic nerve activity (SND) in anesthetized cat has been expressed as percent control; type: functional; parameters: scale not given: the % may be the effect or the level left
D(2) dopamine receptor [29] = target: T2, D(2) dopamine receptor; experiment: Inhibitory concentration against [3H]raclopride-labeled dopamine receptor D2 in rat striatum; type: tissue-based
Mus musculus [30] = experiment: Time of effect in the face-to-face behavioral assay in the mouse when a dose of 0.0 micro mol/kg is administered subcutaneously; type: functional
Mus musculus [31] = experiment: Time of effect in the isolation-induced aggression behavioral assay in the mouse when a dose of 10 micro mol/kg is administered intraperitoneally; type: functional
Mus musculus [32] = experiment: Time of effect in the isolation-induced aggression behavioral assay in the mouse when a dose of 3.4 micro mol/kg is administered intraperitoneally; type: functional
Mus musculus [33] = experiment: Maximum decrease in temperature when compound is administered subcutaneously; type: functional
Mus musculus [34] = experiment: Time of effect in the face-to-face behavioral assay in the mouse when a dose of 34 micro mol/kg is administered subcutaneously; type: functional
Rattus norvegicus [35] = experiment: Inhibition of firing rates of dopaminergic neurons in the substantia nigra pars compacta by intravenous injection in rats.; type: functional; details: Rattus norvegicus, Substantia nigra pars compacta, iv; read-out: ED50
Rattus norvegicus [36] = experiment: Inhibition of firing rates of serotonergic neurons in the dorsal raphe nucleus by intravenous injection in rats.; type: functional
Mus musculus [37] = experiment: Effective dose on hypothermia in mouse when administered subcutaneously; type: functional; details: sc
Mus musculus [38] = experiment: Effective dose on hypothermia in mouse when administered through peroral route; type: functional; details: po
Mus musculus [39] = experiment: Maximum decrease in temperature when compound is administered through peroral route; type: functional
D(2) dopamine receptor [40] = target: T1, D(2) dopamine receptor; experiment: Binding affinity against [3H]U-86,170-labeled dopamine receptor D2 in cloned CHO cells; type: cell-based
Mus musculus [41] = experiment: Antagonism of apomorphine in reserpinized mice when a dose of 3.7 micro mol/kg is administered intraperitoneally; type: functional
Mus musculus [42] = experiment: Antagonism of apomorphine in reserpinized mice when a dose of 37 micro mol/kg is administered intraperitoneally; type: functional
Mus musculus [43] = experiment: Antagonism of apomorphine for 0-10 minutes in reserpinized mice when a dose of 37 micro mol/kg is administered intraperitoneally; type: functional
Mus musculus [44] = experiment: Antagonism of apomorphine for 10-20 minutes in reserpinized mice when a dose of 3.7 micro mol/kg is administered intraperitoneally; type: functional
Mus musculus [45] = experiment: Antagonism of apomorphine for 0-10 minutes in reserpinized mice when a dose of 3.7 micro mol/kg is administered intraperitoneally; type: functional
Mus musculus [46] = experiment: Ability to stimulate dopaminergic systems by effect on locomotor activity in reserpinized mice when a dose of 3.7 micro mol/kg is administered intraperitoneally; type: functional
Mus musculus [47] = experiment: Ability to stimulate dopaminergic systems by effect on locomotor activity in reserpinized mice when a dose of 37 micro mol/kg is administered intraperitoneally; type: functional
Mus musculus [48] = experiment: Antagonism of apomorphine for 10-20 minutes in reserpinized mice when a dose of 37 micro mol/kg is administered intraperitoneally; type: functional
Rattus norvegicus [49] = organism: Rattus norvegicus; experiment: Effect on the synthesis rates of serotonin (5-HTP accumulation) in the rat ventral limbic brain region at 10.6uMkg; type: functional, Limbic system
Rattus norvegicus [50] = organism: Rattus norvegicus; experiment: Effect on the synthesis rates of serotonin (5-HTP accumulation) in the rat ventral limbic brain region at 10.6uMkg.; type: functional, Limbic system

T1 sequence (P14416 whole entry): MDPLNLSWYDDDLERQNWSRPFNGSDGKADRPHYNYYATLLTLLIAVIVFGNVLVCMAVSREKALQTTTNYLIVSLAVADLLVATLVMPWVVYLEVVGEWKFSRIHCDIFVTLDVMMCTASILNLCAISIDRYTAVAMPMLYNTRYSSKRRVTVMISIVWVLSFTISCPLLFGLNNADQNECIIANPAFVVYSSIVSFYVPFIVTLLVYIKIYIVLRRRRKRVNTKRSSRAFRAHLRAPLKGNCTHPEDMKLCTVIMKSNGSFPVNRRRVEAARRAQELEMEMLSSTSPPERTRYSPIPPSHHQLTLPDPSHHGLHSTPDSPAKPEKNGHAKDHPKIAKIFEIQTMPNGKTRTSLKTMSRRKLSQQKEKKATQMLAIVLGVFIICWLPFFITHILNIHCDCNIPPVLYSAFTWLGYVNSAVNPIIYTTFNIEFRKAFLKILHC

C=CCN1CC[C@H]2c3cccc(OC)c3CC[C@H]21
Intrinsic activity (D(2) dopamine receptor [1]): 0%
Ki (D(2) dopamine receptor [2]): 25 nM
Locomotor activity (Mus musculus [3]): 62
Locomotor activity (Mus musculus [4]): 21
Locomotor activity (Mus musculus [5]): 120
Locomotor activity (Mus musculus [6]): 105
Locomotor activity (Mus musculus [7]): 164
Locomotor activity (Mus musculus [8]): 130
Locomotor activity (Mus musculus [9]): 52
Locomotor activity (Mus musculus [10]): 5
Locomotor activity (Mus musculus [11]): 3
Locomotor activity (Mus musculus [12]): 17
Locomotor activity (Mus musculus [13]): 38
ED50 (Rattus norvegicus [14]): 0.91 µmol/kg
ED50 (Rattus norvegicus [15]): 0.24 µmol/kg
Locomotor activity (Mus musculus [16]): 78

CCCN1CC[C@H]2c3c(cccc3OC)CC[C@H]21
Intinsic activity (D(2) dopamine receptor [17]): 37%
Ki (D(2) dopamine receptor [2]): 67 nM
Locomotor activity (Mus musculus [18]): 6
Locomotor activity (Mus musculus [19]): 9
Locomotor activity (Mus musculus [5]): 93
Locomotor activity (Mus musculus [20]): 67
Locomotor activity (Mus musculus [7]): 60
Locomotor activity (Mus musculus [21]): 72
Locomotor activity (Mus musculus [22]): 49
Locomotor activity (Mus musculus [23]): 36
Locomotor activity (Mus musculus [24]): 69
Locomotor activity (Mus musculus [12]): 19
Locomotor activity (Mus musculus [25]): 51
Locomotor activity (Mus musculus [16]): 41

COc1cccc2c1C1CCN(CCc3ccccc3)[C@H]1CC2 (some centres not stated)
Ki (D(2) dopamine receptor [26]): 392 nM

CCCN1[C@H](C)CC2c3c(cccc3OC)CC[C@H]21 (mixture of isomers)
Control (Felis catus [27]): 65%
Control (Felis catus [28]): 250%
IC50 (D(2) dopamine receptor [29]): > 1000 nM
Time (Mus musculus [30]): 0.6 s
Time (Mus musculus [31]): 8 s
Time (Mus musculus [32]): 17 s
Max temperature decrease (Mus musculus [33]): 5.2
Time (Mus musculus [34]): 1.5 s
ED50 (Rattus norvegicus [35]): 1.7 µmol/kg
ED50 (Rattus norvegicus [36]): 0.1 µmol/kg
ED50 (Mus musculus [37]): 19 µmol/kg
ED50 (Mus musculus [38]): 104 µmol/kg
Max temperature decrease (Mus musculus [39]): 2.4

CCCN1CC[C@@H]2c3cccc(O)c3CC[C@H]21 (racemic)
Intrinsic activity (D(2) dopamine receptor [1]): 28%
Ki (D(2) dopamine receptor [40]): 93 nM
Ki (D(2) dopamine receptor [2]): 33 nM
Locomotor activity (Mus musculus [41]): 46
Locomotor activity (Mus musculus [42]): 4
Locomotor activity (Mus musculus [43]): 6
Locomotor activity (Mus musculus [5]): 86
Locomotor activity (Mus musculus [44]): 47
Locomotor activity (Mus musculus [7]): 54
Locomotor activity (Mus musculus [45]): 34
Locomotor activity (Mus musculus [46]): 2
Locomotor activity (Mus musculus [47]): 162
Locomotor activity (Mus musculus [12]): 63
Locomotor activity (Mus musculus [48]): 5
ED50 (Rattus norvegicus [35]): 0.43 µmol/kg
Locomotor activity (Mus musculus [16]): 72

CCCN1CC[C@H]2c3cccc(OC)c3CC[C@H]21 (racemic)
Control (Rattus norvegicus [49]): 7%
Control (Rattus norvegicus [50]): 34%
